Data: ChEMBL document CHEMBL1148996, “6-Methoxylated and C-glycosyl flavonoids from Centaurea species” (1984)
Converted amounts (≈) assume the structure as drawn.

Tests used:
Assay type in all cases: functional
[1] = system: Bacillus subtilis; assay: Antimicrobial activity against Bacillus subtilis ATCC 6633 by paper disk method
[2] = system: Escherichia coli; assay: Antimicrobial activity against Escherichia coli ATCC 8739 by paper disk method
[3] = system: Proteus vulgaris; assay: Antimicrobial activity against Proteus vulgaris ATCC 8427 by paper disk method
[4] = system: Pseudomonas aeruginosa; assay: Antimicrobial activity against Pseudomonas aeruginosa ATCC 1539 by paper disk method
[5] = system: Klebsiella pneumoniae; assay: Antimicrobial activity against Klebsiella pneumoniae UJ57 by paper disk method

Row | Structure (SMILES) | MIC [1] | MIC [2] | MIC [3] | MIC [4] | MIC [5] | MBC [1] | MBC [2] | MBC [3] | MBC [4] | MBC [5]
1 | COc1ccc(-c2cc(=O)c3c(O)c(OC)c(OC)cc3o2)cc1O [EUPATORIN] | 93.8 mg/L (≈ 272 µM) | 188 mg/L (≈ 545 µM) | – | – | – | 188 mg/L (≈ 545 µM) | > 375 mg/L | – | – | –
2 | COc1c(O)cc2oc(-c3ccc(O)cc3)cc(=O)c2c1O [HISPIDULIN] | 125 mg/L (≈ 416 µM) | – | 125 mg/L (≈ 416 µM) | – | – | > 250 mg/L | – | > 250 mg/L | – | –
3 | O=c1cc(-c2ccc(O)cc2)oc2cc(O)cc(O)c12 [APIGENIN] | 110 mg/L (≈ 405 µM) | 110 mg/L (≈ 405 µM) | 54.8 mg/L (≈ 203 µM) | 110 mg/L (≈ 405 µM) | 219 mg/L (≈ 810 µM) | 219 mg/L (≈ 810 µM) | 438 mg/L (≈ 1620 µM) | 438 mg/L (≈ 1620 µM) | 438 mg/L (≈ 1620 µM) | 438 mg/L (≈ 1620 µM)

Now from value to molecule, other results behind:

Row | MIC [1] | MIC [2] | MIC [3] | MIC [4] | MIC [5] | Structure (SMILES) | MBC [1] | MBC [2] | MBC [3] | MBC [4] | MBC [5]
4 | – | 125 mg/L (≈ 378 µM) | – | – | – | COc1cc(-c2cc(=O)c3c(O)c(OC)c(O)cc3o2)ccc1O [JACEOSIDINE] | – | 250 mg/L (≈ 757 µM) | – | – | –
5 | – | 250 mg/L (≈ 698 µM) | – | 125 mg/L (≈ 349 µM) | – | COc1ccc(-c2cc(=O)c3c(O)c(OC)c(OC)cc3o2)cc1OC | – | 500 mg/L (≈ 1400 µM) | – | 250 mg/L (≈ 698 µM) | –
